Results on 5 compounds are retold here after ChEMBL document CHEMBL5030532, “Synthesis and Evaluation of Galloyl Conjugates of Flavanones as BMP-2 Upregulators with Promising Bone Anabolic and Fracture Healing Properties” (J Med Chem, 2021).

Data set [1] concerns Calvarial osteoblast. Description: Induction of osteoblast differentiation in rat Calvaria osteoblast cells measured assessed as increase in alkaline phosphatase activity at 10 pM incubated for 48 hrs using PNPP as substrate. It is filed as functional, cell-based.
The subject of data set [2] is Calvarial osteoblast. Description: Induction of osteoblast differentiation in rat Calvaria osteoblast cells measured assessed as increase in alkaline phosphatase activity at 1 pM incubated for 48 hrs using PNPP as substrate. It is filed as functional, cell-based.
Data set [3] relates to Calvarial osteoblast. Nature of the data set: Induction of osteoblast differentiation in rat Calvaria osteoblast cells measured assessed as increase in alkaline phosphatase activity at 0.000001 to 1 uM incubated for 48 hrs using PNPP as substrate. The following applies: dose lower 1e-06 µM, dose upper 1.0 µM. It is filed as functional, cell-based.
The nature of data set [4]: Induction of bone regeneration in adult rat femur osteotomy model assessed as fold increase in Col1 gene expression in fracture calluses measured at 5 mg/kg, po for 14 days by […] relative to control. It is filed as functional. The following applies: time 14 day.
Data set [5] can be described thus: Stability of the compound in simulated gastric acid at pH 1.2 measured after 1 hr by LC-MS/MS analysis. It is filed as ADME. The note with it: read-out: Stability.
In data set [6] the test system is Calvarial osteoblast. Description: Induction of osteoblast differentiation in rat Calvaria osteoblast cells measured assessed as increase in alkaline phosphatase activity at 0.000001 to 1 uM incubated for 48 hrs using PNPP as substrate in presence of noggin. It is filed as functional, cell-based. The note with it: dose lower 1e-06 µM, dose upper 1.0 µM.
Data set [7] deals with Rattus norvegicus. Nature of the data set: Induction of new bone formation in rat pups assessed as mineral apposition rate in calvaria at 5 mg/kg, sc measured after 5 days by fluorescent microscopy by relative to control. It is filed as functional, organism-based. The note with it: time 5.0 day.
Data set [8] is described as follows: Volume of distribution in Sprague-Dawley rat at 10 mg/kg, po by LC-MS/MS analysis. It is filed as ADME, organism-based. The note with it: in vivo.
Data set [9] is described as follows: MRT in Sprague-Dawley rat at 5 mg/kg, po by LC-MS/MS analysis. It is filed as ADME, organism-based. The note with it: in vivo.
For data set [10], the system named is Rattus norvegicus. Description: In vivo induction of osteogenic activity in neonatal rat pups assessed as fold increase in BMP-2 gene expression in calvarial tissue at 5 mg/kg, sc administered for 6 days. It is filed as functional, organism-based. The following applies: Calvaria, time 6.0 day.
The nature of data set [11]: Stability in rat liver microsomes after 1 hr incubation by LC-MS/MS analysis. It is filed as ADME, Microsome. Background: Microsomes from liver hold many membrane-bound enzymes, among them those of drug oxidation.
The test system of data set [12] is Calvarial osteoblast. Description: Induction of osteogenesis in rat calvarial osteoblast cells assessed as upregulation of BMP-2 protein expression at 1 pM measured after 48 hrs by immunoblotting analysis. It is filed as functional, cell-based.
The subject of data set [13] is Rattus norvegicus. Nature of the data set: Induction of bone regeneration in adult rat femur osteotomy model assessed as restoration of bone morphology measured at 5 mg/kg, po for 14 days by toluidine blue staining based analysis. It is filed as functional, organism-based. The following applies: time 14.0 day.
The nature of data set [14]: MRT in Sprague-Dawley rat at 10 mg/kg, po by LC-MS/MS analysis. It is filed as ADME, organism-based. The following applies: in vivo.
Data set [15] is described as follows: Clearance in Sprague-Dawley rat at 5 mg/kg, po by LC-MS/MS analysis. The note with it: in vivo. It is filed as ADME, organism-based.
Data set [16] can be described thus: AUC in Sprague-Dawley rat at 10 mg/kg, po by LC-MS/MS analysis. It is filed as ADME, organism-based. Details: dose 10 mg/kg. The following applies: in vivo.
The nature of data set [17]: Half life in Sprague-Dawley rat at 5 mg/kg, po by LC-MS/MS analysis. It is filed as ADME, organism-based. The following applies: in vivo.
Data set [18] deals with Calvarial osteoblast. Description: Induction of osteoblast differentiation in rat Calvaria osteoblast cells measured assessed as maximal increase in alkaline phosphatase activity incubated for 48 hrs using PNPP as substrate. It is filed as functional.
Data set [19] can be described thus: Volume of distribution in Sprague-Dawley rat at 5 mg/kg, po by LC-MS/MS analysis. It is filed as ADME, organism-based. The note with it: in vivo.
The subject of data set [20] is Calvarial osteoblast. Description: Induction of mineralization in rat Calvarial osteoblast cells measured at 1 pM measured for 14 days by Cetylpyridinium chloride method. It is filed as functional, tissue-based. The note with it: time 14.0 day.
Data set [21] in a line: In vivo induction of osteogenic activity in neonatal rat pups assessed as fold increase in OCN gene expression in calvarial tissue at 10 mg/kg, sc administered for 6 days. It is filed as functional, Calvaria. The following applies: time 6 day.
Data set [22] is described as follows: Stability in rat plasma after 1 hr incubation by LC-MS/MS analysis. It is filed as ADME, cell-free. The following applies: read-out: Stability.
Data set [23] relates to Rattus norvegicus. Description: Induction of bone regeneration in adult rat femur osteotomy model assessed as increase in bone volume/tissue volume fraction measured at 5 mg/kg, po for 14 days by microCT analysis relative to control. The note with it: time 14 day. It is filed as functional.
Data set [24] can be described thus: Clearance in Sprague-Dawley rat at 10 mg/kg, po by LC-MS/MS analysis. It is filed as ADME, organism-based. The following applies: in vivo.
The nature of data set [25]: In vivo induction of osteogenic activity in neonatal rat pups assessed as fold increase in OCN gene expression in calvarial tissue at 5 mg/kg, sc administered for 6 days. The following applies: time 6 day. It is filed as functional, Calvaria.
In data set [26] the test system is Calvarial osteoblast. Description: Induction of osteogeneis in rat calvarial osteoblast cells assessed as upregulation of RUNX2 protein expression at 1 pM measured after 48 hrs by immunoblotting analysis. It is filed as functional, tissue-based. In general terms: In western blotting, separated proteins are transferred to a membrane and probed.
A short description of data set [27]: In vivo induction of osteogenic activity in neonatal rat pups assessed as fold increase in RUNX2 gene expression in calvarial tissue at 5 mg/kg, sc administered for 6 days. It is filed as functional, Calvaria. The note with it: time 6 day.
Data set [28] can be described thus: Induction of osteogeneis in rat calvarial osteoblast cells assessed as fold upregulation of Col1 gene expression at 1 pM measured after 48 hrs by qPCR analysis relative to control. It is filed as functional. (Real-time PCR tracks product formation cycle by cycle.)
Data set [29] has as its system Rattus norvegicus. Description: Induction of new bone formation in rat pups assessed as mineralized bone formation in calvaria by measuring bone formation rate at 5 mg/kg, sc measured after 5 days by fluorescent microscopy by relative to control. It is filed as functional, organism-based. The note with it: time 5.0 day.
The nature of data set [30]: Induction of osteogeneis in rat calvarial osteoblast cells assessed as fold upregulation of BMP-2 gene expression at 1 pM measured after 48 hrs by qPCR analysis relative to control. It is filed as functional.
Data set [31] deals with Rattus norvegicus. Nature of the data set: Induction of bone regeneration in adult rat femur osteotomy model assessed as increase in trabecular thickness measured at 5 mg/kg, po for 14 days by microCT analysis relative to control. The following applies: time 14.0 day. It is filed as functional, organism-based.
A short description of data set [32]: Stability of the compound in simulated intestinal acid at pH 6.5 measured after 1 hr by LC-MS/MS analysis. It is filed as ADME. The following applies: read-out: Stability.
Data set [33] concerns Rattus norvegicus. Description: Induction of new bone formation in rat pups assessed as mineralized bone formation in calvaria by measuring bone formation rate at 10 mg/kg, sc measured after 5 days by fluorescent microscopy by relative to control. It is filed as functional, organism-based. The note with it: time 5.0 day.
A short description of data set [34]: Half life in Sprague-Dawley rat at 10 mg/kg, po by LC-MS/MS analysis. It is filed as ADME, organism-based. The following applies: in vivo.
The nature of data set [35]: Induction of osteogeneis in rat calvarial osteoblast cells assessed as fold upregulation of RUNX2 gene expression at 1 pM measured after 48 hrs by qPCR analysis relative to control. It is filed as functional.
The nature of data set [36]: Induction of bone regeneration in adult rat femur osteotomy model assessed as fold increase in OCN expression in fracture calluses measured at 5 mg/kg, po for 14 days by […] relative to control. It is filed as functional. The note with it: time 14 day.
Data set [37] has as its system Rattus norvegicus. Nature of the data set: Induction of bone regeneration in adult rat femur osteotomy model assessed as increase in calcein labeled callus measured at 5 mg/kg, po for 14 days by calcein labeling study relative to control. It is filed as functional. The note with it: time 14 day.
Data set [38] in a line: AUC in Sprague-Dawley rat at 5 mg/kg, po by LC-MS/MS analysis. Set-up: dose 5 mg/kg. It is filed as ADME, organism-based. The note with it: in vivo.
Data set [39] concerns Rattus norvegicus. Description: Induction of bone regeneration in adult rat femur osteotomy model assessed as increase in trabecular number measured at 5 mg/kg, po for 14 days by microCT analysis relative to control. The note with it: time 14.0 day. It is filed as functional, organism-based.
The subject of data set [40] is Calvarial osteoblast. Description: Cytotoxicity against rat Calvarial osteoblast cells assessed as viable cells measured at 0.000001 to 1 uM measure after 48 hrs by cell viability assay. It is filed as cell-based. The note with it: dose lower 1e-06 µM, dose upper 1 µM.
The subject of data set [41] is Rattus norvegicus. Description: Induction of new bone formation in rat pups assessed as mineralized bone formation in calvaria by measuring increase in calvarial thickness at 5 mg/kg, sc measured after 5 days by Hematoxylin and eosin staining based quantitative histology. It is filed as functional, organism-based. The following applies: time 5.0 day.
A short description of data set [42]: Cmax in Sprague-Dawley rat at 10 mg/kg, po by LC-MS/MS analysis. It is filed as ADME, organism-based. The note with it: in vivo. Details: route oral, dose 10 mg/kg.
Data set [43] relates to Calvarial osteoblast. Description: Induction of rat Calvarial osteoblast cell proliferation at 0.000001 to 1 uM measured after 48 hrs by MTT assay. It is filed as functional, tissue-based. The following applies: dose lower 1e-06 µM, dose upper 1.0 µM.
Data set [44] is described as follows: Cmax in Sprague-Dawley rat at 5 mg/kg, po by LC-MS/MS analysis. The note with it: in vivo. It is filed as ADME, organism-based. Details: route oral, dose 5 mg/kg.
Data set [45] can be described thus: Induction of osteogeneis in rat calvarial osteoblast cells assessed as fold upregulation of ALP gene expression at 1 pM measured after 48 hrs by qPCR analysis relative to control. It is filed as functional.

Active and inactive are the calls of the source. The rule behind the calls is not given here.

`COc1cccc(C2CC(=O)c3cc([N+](=O)[O-])ccc3O2)c1` (stereo not given): the outcome in data set [1] and in data set [2] was Active.

For the compound `COc1cccc([C@@H]2CC(=O)c3cc(NC(=O)c4cc(OC)c(OC)c(OC)c4)ccc3O2)c1`, in data set [3], the result was Active.

Regarding `COc1cccc([C@H]2CC(=O)c3cc(NC(=O)c4cc(OC)c(OC)c(OC)c4)ccc3O2)c1`, the outcome in data set [3] was Active.

For the compound `O=C(O)c1cc(O)c(O)c(O)c1`, the result in [1] and in data set [2] was Active.

A word on the MRT: it is a mean duration of stay, worked out from the concentration-time curve. In general, CL/F refers to the apparent clearance, not corrected for the fraction that reaches the circulation. What is called AUC is concentration integrated over time. Read a high AUC as more exposure. For orientation: half-life means the time in which the quantity being followed falls by half. For orientation: Cmax means the peak of the concentration-time curve. As to `COc1cccc(C2CC(=O)c3cc(NC(=O)c4cc(OC)c(OC)c(OC)c4)ccc3O2)c1` (racemic), the “fold change (FC)” value in [4] was determined as 2.5; in [21] it was 10; in [25], 18; in [27], 2; in data set [28] it was 2.9; in data set [30], 4.4. Also, the “fold change (FC)” value in data set [35] was found to be 3.7; in [36], 2.2; in [45] it was 5.5. For the same compound, the figures for the remaining at 1 h in data set [5], in data set [22] and in data set [32] were 69%, 89% and 88%, respectively. In addition, the result in data set [6] and in [7] was inactive. In addition, the Vdss in data set [8] amounted to 12.99 L/kg; in [19], 8.42 L/kg. The MRT in data set [9] was found to be 7.68 h; in data set [14] it was 9.17 h. For the same compound, the Activity result in data set [10] was “Dose-Dependent Effect”; in data set [23] it was 44.3%; in [37], 130%; in [40], “Non-Toxic”; in data set [43] it was “Toxic”. In data set [11], the Stability result is reported as “Stable”. Further, the result in data set [12], in data set [13], in data set [1], in [20], in data set [26] and in data set [29] was Active. The outcome in data set [31], in [33], in data set [39], in data set [41] and in [2] was Active. Besides, the CL/F in [15] is 17.3 mL/min/kg; in data set [24] it was 25.7 mL/min/kg. Besides, the AUC is 6530 ng·h/mL in data set [16] and 4820 ng·h/mL in data set [38]. The half-life in data set [17] was 336 min; in data set [34], 351 min. In addition, in data set [18], the ECmax worked out at 1 nM. The peak concentration (Cmax) in data set [42] was found to be 858 ng/mL; in data set [44], 736 ng/mL.
